Where a name gives a salt, the structure may show the parent alone.
Key:
Type in all cases: functional, Artery
Rattus norvegicus [1] = assay: Average change in mean arterial blood pressure (mmHg) observed at 4 hr after oral administration at a dose of 14 mg/kg in female Sprague-Dawley rats
Rattus norvegicus [2] = assay: Average change in mean arterial blood pressure (mmHg) observed at 4 hr after oral administration at a dose of 5 mg/kg in female Sprague-Dawley rats
Rattus norvegicus [3] = assay: Average change in mean arterial blood pressure (mmHg) observed at 4 hr after oral administration at a dose of 50 mg/kg in female Sprague-Dawley rats
Rattus norvegicus [4] = assay: Average change in mean arterial blood pressure (mmHg) observed at 4 hr after oral administration at a dose of 0.15 mg/kg in female Sprague-Dawley rats

`Cc1cc(N2CCOCC2)nc(N)[n+]1OS(=O)(=O)[O-]` gave a Delta blood pressure (Rattus norvegicus [1]) of -37 mmHg.

Compound `C=CCN(CC=C)c1nc(N)[n+](OS(=O)(=O)[O-])c(N)n1` has a Delta blood pressure (Rattus norvegicus [2]) of -21 mmHg.

`CNc1cc(N)[n+](OS(=O)(=O)[O-])c(N)n1` showed a Delta blood pressure (Rattus norvegicus [3]) of -8 mmHg.

For `Cc1cc(N2CCCC2)nc(N)[n+]1OS(=O)(=O)[O-]`, the Delta blood pressure (Rattus norvegicus [3]) was -39 mmHg.

For `Nc1cc(N2CCCCC2)nc(N)[n+]1OS(=O)(=O)[O-]` [MINOXIDIL SULFATE], the Delta blood pressure (Rattus norvegicus [4]) was -16 mmHg.
